According to patent US9938245B2 (THE TRUSTEES OF COLUMBIA UNIVERSITY IN THE CITY OF NEW YORK, priority 2014, dated 2018):

Legend:
BJeLR = experiment: Concentration-dependent growth inhibition (alamar blue), isogenic BJ cell lines; type: cell-based, human
[1] = tested on: BJeH, BJeHLT, BJeLR, and DRD; experiment: RSL testing in 4 BJ-derived cell lines; type: cell-based, human
[2] = mouse
system xc− = target: T1, system xc− (Homo sapiens, UniProt Q9UPY5); experiment: Glutamate release assay (system xc− activity); conditions: read-out: IC50 glutamate release; CCF-STTG1 human astrocytoma cells, 2 hour incubation
T1 sequence (Q9UPY5 1-501): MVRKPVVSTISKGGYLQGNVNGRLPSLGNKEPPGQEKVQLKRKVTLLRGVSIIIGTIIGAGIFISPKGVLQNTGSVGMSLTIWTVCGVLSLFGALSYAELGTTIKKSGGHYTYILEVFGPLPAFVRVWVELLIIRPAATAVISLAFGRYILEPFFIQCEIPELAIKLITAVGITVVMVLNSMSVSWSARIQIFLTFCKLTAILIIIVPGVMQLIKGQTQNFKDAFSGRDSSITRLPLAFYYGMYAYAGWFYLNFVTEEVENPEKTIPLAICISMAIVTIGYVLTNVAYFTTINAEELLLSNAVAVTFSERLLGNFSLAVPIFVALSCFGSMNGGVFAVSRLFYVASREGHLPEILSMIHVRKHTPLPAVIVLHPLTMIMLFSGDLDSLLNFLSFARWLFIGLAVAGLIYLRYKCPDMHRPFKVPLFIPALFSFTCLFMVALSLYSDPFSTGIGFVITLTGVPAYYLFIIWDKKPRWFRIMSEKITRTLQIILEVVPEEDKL
T1 sequence (P08195 1-529 partner): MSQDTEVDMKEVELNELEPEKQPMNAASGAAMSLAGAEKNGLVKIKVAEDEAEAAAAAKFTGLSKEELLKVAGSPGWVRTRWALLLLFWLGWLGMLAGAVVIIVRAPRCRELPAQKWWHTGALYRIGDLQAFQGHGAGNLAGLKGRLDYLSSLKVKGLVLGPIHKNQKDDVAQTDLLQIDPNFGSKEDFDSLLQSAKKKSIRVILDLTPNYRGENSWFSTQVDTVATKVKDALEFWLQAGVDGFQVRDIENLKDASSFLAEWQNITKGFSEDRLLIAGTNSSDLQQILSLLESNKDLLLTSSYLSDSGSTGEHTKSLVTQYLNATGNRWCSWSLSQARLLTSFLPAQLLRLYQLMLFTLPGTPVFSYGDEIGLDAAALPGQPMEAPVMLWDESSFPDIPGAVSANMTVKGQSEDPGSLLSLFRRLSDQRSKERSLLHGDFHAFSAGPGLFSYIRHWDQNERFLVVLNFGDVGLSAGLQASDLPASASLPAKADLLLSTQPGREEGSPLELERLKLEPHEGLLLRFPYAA

HT1080 = experiment: Concentration-dependent growth inhibition (alamar blue), HT1080; type: cell-based, human; conditions: 2 days
Method: Assay plates were prepared by seeding either BJ-derived cell lines or HT-1080 cells at 1,500 cells per well concentration in 36 μL growth medium. Cells in the assay plates were treated with compounds by transferring 4 μL volume from the compound plate. The final concentration of compound was typically 30 μM to 0.9 nM in this 16-point, 2-fold dilution series. Assay plates were returned to the culture incubator and maintained for 2 days before adding alamar blue. […] Plates were incubated further for 16 hours to allow reduction of alamar blue, which results in the generation of red fluorescence. The fluorescence intensity was determined using a Victor 3 plate reader (Perkin Elmer) with a 535 nm excitation filter and a 590 nm emission filter.
Percent growth inhibition (% GI) was calculated from the following formula using the alamar blue fluorescence intensity values. % GI=100*(1−(X−N)/(P−N)) X, cells treated with lethal compound; N, no cells—growth media only; P, no lethal compound—cells only.
The concentration-dependent curves were generated using Prism software. Percent growth inhibition, measured using alamar blue is shown. Error bars indicate one standard deviation of triplicate data.
The results are shown in FIG. 17 and in Table 7 below.

HT-1080 tumor = HT-1080 tumor formation, mouse xenograft model; type: in vivo, athymic nude mice; conditions: PE 40 mg/kg SC then 30 mg/kg tail vein; erastin SC
Method: The images show representative tumors in live mice from each treatment group.
Athymic nude mice (8 weeks, Charles River) were injected with 4 million HT-1080 cells subcutaneously (SC). […] Two days later, the SC injection was repeated. Three days later, […] of vehicle or 30 mg/kg PE were administered to the mice through a tail vein. The tail vein injection was repeated three times more, once every other day, before the final tumor size was measured in both groups.
Instead, erastin was injected through the SC route using the same schedule as PE until the tumor size was measured.

HT-1080 cells = experiment: Modulatory profiling with lethal molecules and cell death modulators; type: cell-based, human
GFP-ALOX5 = GFP-ALOX5 translocation assay; type: cell-based, human
cellular GSH = experiment: GSH depletion assay; type: cell-based; conditions: BJeLR cells, lethal RSL3 dose
lipid peroxides = experiment: Lipid peroxide detection using BODIPY-C11; type: cell-based; conditions: BJeLR and other BJ-derived cells

Structure (SMILES) | Selectivity (IC50BJeH/IC50BJeLR) (BJeLR) | IC50 (BJeLR; 2 days, alamar blue) | RSL phenotype (selective lethality in oncogenic-RAS cells) [1] | Half-life in liver microsomes [2] | IC50 (system xc−) | IC50 (HT1080) | preventing HT-1080 tumor formation (HT-1080 tumor) | form of cell death (modulatory profile) (HT-1080 cells) | translocation of GFP-ALOX5 to the nuclear membrane (GFP-ALOX5) | cellular GSH level (cellular GSH) | generation of lipid peroxides (BODIPY-C11) (lipid peroxides)
CC(C)Oc1ccc(CN2CCNCC2)cc1-n1c(CN2CCN(C(=O)COc3ccc(Cl)cc3)CC2)nc2ccccc2c1=O [PE, piperazine erastin] | 3 | 300 nM | retained the RSL phenotype | 55 min | 800 nM | 1200 nM | improved efficacy over erastinin (ERA) | induced a similar form of cell death as erastin |  |  | 
COC(=O)c1ccc([C@@H]2c3[nH]c4ccccc4c3C[C@@H](C(=O)OC)N2C(=O)CCl)cc1 [RSL3] |  |  | exhibited selective lethality in BJeLR cells |  |  |  |  |  | caused GFP-ALOX5 translocation to the nuclear membrane in BJeLR cells | remained unaffected | generation of lipid peroxides
